Measurements from patent US11026989B2, “Composition for treating erectile dysfunction by Orchis anatolica extract” (Jordan University of Science and Technology, priority 2016, dated 2021).

Tested on: penile tissue (corpus cavernosum strips)
Assay: In vitro relaxation of penile tissue strips in physiological organ bath after induced contraction
Set-up: species or system New Zealand rabbit and albino rats
Source text: A water-jacketed physiological organ bath provides a stable and adjustable way of organ stability and temperature control. Substrates and other nutrients that are required to sustain tissue function were provided via a physiological solution (e.g., Krebs solution). This will allowed the study of evoked tissue responses to pharmacological agents and/or electrical stimulation.
Penile tissues from a mature New Zealand rabbit (e.g., 3-3.5 kg) and albino rats (e.g., 300-350 g) were dissected out and cleaned of the outer adherent connective tissue, and the two corpora cavernosa integral tissues were obtained. Each corpus cavernosum was cut lengthwise into 4 pieces measuring about 2 mm thick and 10-12 mm long out of which a 7-8 mm long piece was taken from the middle part of each strip by removing the two unwanted edges of these strips. The strips were kept in a well oxygenated Krebs solution, pre-cooled to 4° C., and placed in a refrigerator until the initiation of the experiment.
Each erectile tissue (“ET”) was mounted by clipping both of its ends within the bath. An ET strip was hooked to one clip end, which was tied to a metal wire (e.g., mounting hook), which was fixed to a bottom of a water-jacketed chamber. The top end of the strip was clipped to a cotton thread and connected to a lever (e.g., arm), which was connected to a Harvard isotonic transducer. The former was connected to a Harvard Universal Oscillograph for recording the force of contraction to an isotonic transducer. The tissue strip was stretched against a fixed caliber weight of 2 gm attached to the lever of the isotonic transducer. The free movable lever end was horizontally adjusted receptive to any movement according to the contraction and relaxation of the ET within the path when stimulated. Before each experiment, the transducer was calibrated two times against this caliber weight. The bath into which the tissue was mounted contained 25 ml of oxygenated Krebs solution with continuous oxygenation (gas mixture of 95% O2 and 5% CO2 and at 37° C.) and left for 60 minutes before starting the experiment.
Certain specifications for collection of Orchis anatolica plants were adopted so that the intact roots together with the potato-shaped bulb parts were collected and preserved intact. Bulbs were detached from roots and left to dry at air temperature, and then separated into two categories: a large rounded sized bulb resembling the small sized potato (male bulb) and an elongated small sized bulb (female or feeding bulb). The round potato shaped bulb was chopped and grinded using an electrical grinder until a powder was obtained. Each 500 g of dried and grinded orchis roots was then refluxed in (2 L) 70% ethanol at 50° C. for 36 hours in a continuous extraction (soxhlet) apparatus. Ethanol extract was filtered and concentrated under reduced pressure at 50° C. using a rotary evaporator. Red Korean Panax Ginseng was obtained from a South Korea market as a concentrated powder vacuumed and sealed in metal container packages of 50 g (commercially obtained from KOREAEXPORT CO LTD). Powder was dissolved well in distilled water from which different concentrations were used. Different doses of both Orchis anatolica extract and Red Korean Panax Ginseng were used to obtain and determine the maximum effect of ET response.
A 1 liter Krebs stock solution was prepared the day before the experiment containing the following chemicals: NaCl (125 mM), NaHCO3 (20 mM), KCl (4 mM), NaH2PO4 (1.8 mM), MgSO4 (1.8 mM), CaCl2 (1.8 mM), glucose (10 mM), and HEPES buffer (10 mM) (see Table 1). For a final 1 liter Krebs solution, 725 ml ringer and […] Deionized water were added. The solution pH was set to 7.4 after gassing with 95% O2/5% CO2 for 30 minutes before it was used. Krebs solutions were freshly prepared on each experimental day from the stock solutions stored in the refrigerator. […]

Structure (SMILES) | Time dependent penile tissue contraction (−) and relaxation (+) response to treatment (5 minutes, 0.0509 gm stock solution) | Time dependent penile tissue contraction (−) and relaxation (+) response to treatment (10 minutes, 0.0509 gm stock solution) | Time dependent penile tissue contraction (−) and relaxation (+) response to treatment (15 minutes, 0.0509 gm stock solution) | Time dependent penile tissue contraction (−) and relaxation (+) response to treatment (20 minutes, 0.0509 gm stock solution) | Time dependent penile tissue contraction (−) and relaxation (+) response to treatment (25 minutes, 0.0509 gm stock solution) | Time dependent penile tissue contraction (−) and relaxation (+) response to treatment (5 minutes, 0.002 g/50 ml Krebs, after phenylephrine contraction) | Time dependent penile tissue contraction (−) and relaxation (+) response to treatment (15 minutes, 0.002 g/50 ml Krebs, after phenylephrine contraction) | Time dependent penile tissue contraction (−) and relaxation (+) response to treatment (25 minutes, 0.002 g/50 ml Krebs, after phenylephrine contraction)
CNC[C@H](O)c1cccc(O)c1 [L-Phenylephrine] | −6.8%^ | −8.2%^ | −9.5%^ | −10% | −10% |  |  | 
CCCc1nn(C)c2c(=O)[nH]c(-c3cc(S(=O)(=O)N4CCN(C)CC4)ccc3OCC)nc12 [Sildenafil] |  |  |  |  |  | 11% | 12% | 24%
